# How the values were obtained:
# Test in all cases: combination Emax (second highest fraction inhibited in the dose matrix, 72 h); higher = more inhibition; extreme values may be limits of the assay
# [1] = system: CCRF-CEM (T-Lymphoblastic Leukemia)
# Procedure, shortened: (§1)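 Bliss excess equals the observed combination effect minus the expected value EA + EB − EA·EB, where EA and EB are the effects of each agent alone. Combination Emax is the second-highest inhibition within the matrix. Inhibition was scaled from CellTiter-Glo 2.0 luminescence, with 0 set by vehicle wells and 1 by blank wells, after 72 hours of two-drug dosing of cells plated in 1536-well plates.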
# [2] = system: CaR-1 (Colorectal Carcinoma)
# Procedure, shortened: as §1
# [3] = system: Calu-3 (Lung Adenocarcinoma)
# Procedure, shortened: as §1
# [4] = system: HCC-78 (Lung Adenocarcinoma)
# Procedure, shortened: as §1
# [5] = system: HO-1-N-1 (Oral Cavity Carcinoma)
# Procedure, shortened: as §1
# HOS (Osteosarcoma) = system: HOS (Osteosarcoma)
# Procedure, shortened: as §1
# [6] = system: HT-1376 (Bladder Carcinoma)
# Procedure, shortened: as §1
# KELLY (Neuroblastoma) = system: KELLY (Neuroblastoma)
# Procedure, shortened: as §1
# [7] = system: KURAMOCHI (Ovarian Carcinoma)
# Procedure, shortened: as §1
# [8] = system: LB831-BLC (Bladder Carcinoma)
# Procedure, shortened: as §1
# [9] = system: LS-180 (Colorectal Carcinoma)
# Procedure, shortened: as §1
# NB10 (Neuroblastoma) = system: NB10 (Neuroblastoma)
# Procedure, shortened: as §1
# [10] = system: NCI-H2085 (Non-Small Cell Lung Carcinoma)
# Procedure, shortened: as §1
# [11] = system: NCI-H82 (Small Cell Lung Carcinoma)
# Procedure, shortened: as §1
# [12] = system: RO82-W-1 (Thyroid Gland Carcinoma)
# Procedure, shortened: as §1
# [13] = system: Ramos-2G6-4C10 (Burkitt's Lymphoma)
# Procedure, shortened: as §1
# T98G (Glioblastoma) = system: T98G (Glioblastoma)
# Procedure, shortened: as §1
# [14] = system: TE-15 (Esophageal Squamous Cell Carcinoma)
# Procedure, shortened: as §1
# [15] = system: TE-9 (Esophageal Squamous Cell Carcinoma)
# Procedure, shortened: as §1
# [16] = system: UM-UC-3 (Bladder Carcinoma)
# Procedure, shortened: as §1
SMILES,combination Emax [1],combination Emax [2],combination Emax [3],combination Emax [4],combination Emax [5],combination Emax (HOS (Osteosarcoma)),combination Emax [6],combination Emax (KELLY (Neuroblastoma)),combination Emax [7],combination Emax [8],combination Emax [9],combination Emax (NB10 (Neuroblastoma)),combination Emax [10],combination Emax [11],combination Emax [12],combination Emax [13],combination Emax (T98G (Glioblastoma)),combination Emax [14],combination Emax [15],combination Emax [16]
"C=CCn1c(=O)c2cnc(Nc3ccc(N4CCN(C)CC4)cc3)nc2n1-c1cccc(C(C)(C)O)n1 [AZD1775] + CCc1c2c(nc3ccc(O)cc13)-c1cc3c(c(=O)n1C2)COC(=O)[C@]3(O)CC [SN-38] (first compound max 1 µM, partner max 0.3 µM)",1,0.808,0.786,0.954,0.978,0.849,0.342,1,0.944,0.875,0.806,0.853,0.523,0.965,0.263,1,0.95,0.939,0.496,0.954
"C=CCn1c(=O)c2cnc(Nc3ccc(N4CCN(C)CC4)cc3)nc2n1-c1cccc(C(C)(C)O)n1 [AZD1775] + Nc1ccn([C@@H]2O[C@H](CO)[C@@H](O)C2(F)F)c(=O)n1 [Gemcitabine] (first compound max 1 µM, partner max 0.3 µM)",1,0.729,0.636,0.851,0.993,0.596,0.428,1,0.699,0.872,0.754,0.933,0.725,0.923,0.194,1,0.781,0.944,0.502,0.918
"CN(CCO)CC[C@H](CSc1ccccc1)Nc1ccc(S(=O)(=O)NC(=O)c2ccc(N3CCC([C@@H](O)c4ccccc4-c4ccc(Cl)cc4)CC3)cc2)cc1S(=O)(=O)C(F)(F)F [AZD4320] + CC(=O)O[C@H]1C(=O)[C@@]2(C)[C@H]([C@H](OC(=O)c3ccccc3)[C@]3(O)C[C@H](OC(=O)[C@H](O)[C@@H](NC(=O)c4ccccc4)c4ccccc4)C(C)=C1C3(C)C)[C@]1(OC(C)=O)CO[C@@H]1C[C@@H]2O [Paclitaxel] (first compound max 1 µM, 7x7, partner max 3 µM)",1,0.911,0.76,0.803,1,1,0.775,1,0.707,0.965,0.94,0.912,0.97,0.941,0.947,0.872,0.993,0.992,0.931,0.966
"CN(CCO)CC[C@H](CSc1ccccc1)Nc1ccc(S(=O)(=O)NC(=O)c2ccc(N3CCC([C@@H](O)c4ccccc4-c4ccc(Cl)cc4)CC3)cc2)cc1S(=O)(=O)C(F)(F)F [AZD4320] + CS(=O)(=O)CCNCc1ccc(-c2ccc3ncnc(Nc4ccc(OCc5cccc(F)c5)c(Cl)c4)c3c2)o1 [Lapatinib] (first compound max 1 µM, 7x7, partner max 10 µM)",1,0.785,0.989,0.238,0.97,0.348,0.508,0.994,0.939,0.858,0.505,0.705,0.807,0.69,0.646,0.961,0.741,0.761,0.931,0.392
"CN(CCO)CC[C@H](CSc1ccccc1)Nc1ccc(S(=O)(=O)NC(=O)c2ccc(N3CCC([C@@H](O)c4ccccc4-c4ccc(Cl)cc4)CC3)cc2)cc1S(=O)(=O)C(F)(F)F [AZD4320] + Nc1ccn([C@@H]2O[C@H](CO)[C@@H](O)C2(F)F)c(=O)n1 [Gemcitabine] (first compound max 1 µM, 7x7, partner max 0.3 µM)",1,0.708,0.624,0.852,1,0.829,0.236,0.999,0.559,0.881,0.66,0.858,0.562,0.807,0.572,0.554,0.861,0.994,0.518,0.979
"Cc1c2c(nn1C)CSCc1cc(n(C)n1)CSc1cc(c3ccccc3c1)OCCCc1c(C(=O)O)n(C)c3c-2c(Cl)ccc13 [AZD5991] + CC(=O)O[C@H]1C(=O)[C@@]2(C)[C@H]([C@H](OC(=O)c3ccccc3)[C@]3(O)C[C@H](OC(=O)[C@H](O)[C@@H](NC(=O)c4ccccc4)c4ccccc4)C(C)=C1C3(C)C)[C@]1(OC(C)=O)CO[C@@H]1C[C@@H]2O [Paclitaxel] (first compound max 1 µM, 7x7, partner max 3 µM)",0.992,0.741,0.346,0.433,1,0.964,0.0587,1,0.539,0.733,0.822,0.915,0.743,0.997,0.401,1,0.883,0.998,0.789,0.745
"Cc1c2c(nn1C)CSCc1cc(n(C)n1)CSc1cc(c3ccccc3c1)OCCCc1c(C(=O)O)n(C)c3c-2c(Cl)ccc13 [AZD5991] + CS(=O)(=O)CCNCc1ccc(-c2ccc3ncnc(Nc4ccc(OCc5cccc(F)c5)c(Cl)c4)c3c2)o1 [Lapatinib] (first compound max 1 µM, 7x7, partner max 10 µM)",0.594,0.432,0.895,0.173,0.962,0.303,0.33,1,0.674,0.55,0.482,0.177,0.47,0.963,0.141,0.996,0.412,0.764,0.193,0.169
"Cc1c2c(nn1C)CSCc1cc(n(C)n1)CSc1cc(c3ccccc3c1)OCCCc1c(C(=O)O)n(C)c3c-2c(Cl)ccc13 [AZD5991] + Nc1ccn([C@@H]2O[C@H](CO)[C@@H](O)C2(F)F)c(=O)n1 [Gemcitabine] (first compound max 1 µM, 7x7, partner max 0.3 µM)",0.987,0.629,0.534,0.787,0.994,0.823,0.215,1,0.491,0.677,0.779,0.778,0.203,0.972,0.0885,0.994,0.5,0.931,0.343,0.832
"C[C@@H]1COCCN1c1cc(C2([S@](C)(=N)=O)CC2)nc(-c2ccnc3[nH]ccc23)n1 [AZD6738] + C1CC(C1)(C(=O)[O-])C(=O)[O-].N.N.[Pt+2] [Carboplatin] (first compound max 10 µM, 7x7, partner max 10 µM)",0.977,0.385,0.555,0.662,0.779,0.668,0.454,0.944,0.636,0.39,0.7,0.689,0.381,0.823,0.151,0.88,0.886,0.857,0.264,0.398
"Cc1cc2ncnn2cc1Nc1ncc2c(n1)n(C1CCOCC1)c(=O)n2C [AZD7648] + COc1cc([C@@H]2c3cc4c(cc3[C@@H](O[C@@H]3O[C@@H]5CO[C@@H](C)O[C@H]5[C@H](O)[C@H]3O)[C@H]3COC(=O)[C@H]23)OCO4)cc(OC)c1O [Etoposide] (first compound max 10 µM, 7x7, partner max 10 µM)",1,0.661,0.744,0.774,0.987,0.879,0.515,0.793,0.474,0.836,0.729,0.872,0.434,0.848,0.288,0.963,0.741,0.835,0.287,0.875
"C[C@@H](Nc1cc(F)cc(F)c1)c1cc(C(=O)N(C)C)cc2c(=O)cc(N3CCOCC3)oc12 [AZD8186] + C1CN(CCC1(C(=O)N[C@@H](CCO)C2=CC=C(C=C2)Cl)N)C3=NC=NC4=C3C=CN4 [AZD5363] (first compound max 10 µM, 7x7, partner max 10 µM)",0.411,0.394,0.318,0.34,0.54,0.336,0.116,0.115,0.254,0.442,0.419,0.228,0.542,0.358,0.201,0.26,0.562,0.496,0.198,0.4
"C[C@@H](Nc1cc(F)cc(F)c1)c1cc(C(=O)N(C)C)cc2c(=O)cc(N3CCOCC3)oc12 [AZD8186] + CC(=O)c1c(C)c2cnc(Nc3ccc(N4CCNCC4)cn3)nc2n(C2CCCC2)c1=O [Palbociclib] (first compound max 10 µM, 7x7, partner max 10 µM)",0.622,0.471,0.281,0.365,0.505,0.336,0.0814,0.434,0.28,0.398,0.624,0.403,0.61,0.526,0.27,0.302,0.657,0.597,0.109,0.621

# — the supplement of paper PMC11061612
